Reference: ChEMBL document CHEMBL1201862, “PubChem BioAssay data set” (2004)
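Five concentrations, 48 hours, 96-well plates. GI50 = concentration required for 50% inhibition of growth.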 Active and inactive are the calls of the source. No stated cut-off is given here; in the data, active = GI50 up to about 1.1 µM and inactive = higher.

Experiments:
Test in all cases: DTP human tumour cell line panel, 48 h
DLD-1 = test system: DLD-1
DMS-114 = test system: DMS-114
DMS-273 = test system: DMS-273
KM-20L2 = test system: KM-20L2
LXFL 529 = test system: LXFL 529
XF498 = test system: XF498
HOP-18 = test system: HOP-18
SNB-78 = test system: SNB-78
RXF 631 = test system: RXF 631

| SMILES | GI50 (DLD-1) | GI50 (DMS-114) | GI50 (DMS-273) | GI50 (KM-20L2) | GI50 (LXFL 529) | GI50 (XF498) | GI50 (HOP-18) | GI50 (SNB-78) | GI50 (RXF 631) |
| --- | --- | --- | --- | --- | --- | --- | --- | --- | --- |
| CC(C)OP(=O)(OC(C)C)/C(=N/Nc1ccc([N+](=O)[O-])cc1)NCCN/C(=N\Nc1ccc([N+](=O)[O-])cc1)P(=O)(OC(C)C)OC(C)C | 4.71 µM (inactive) | 3.85 µM (inactive) | 3.7 µM (inactive) | 4.52 µM (inactive) | 3.17 µM (inactive) | 3.18 µM (inactive) |  |  |  |
| C=CCC12CC(=O)CCC1c1ccc(OC)cc1C2=O (stereo not drawn) | > 100 µM (inactive) | > 100 µM (inactive) | > 100 µM (inactive) | > 100 µM (inactive) | > 100 µM (inactive) |  | > 100 µM (inactive) | > 100 µM (inactive) |  |
| OCC1CC2C=CCC(C2)C1 (stereo not drawn) | > 100 µM (inactive) | > 100 µM (inactive) | > 100 µM (inactive) | > 100 µM (inactive) | > 100 µM (inactive) | > 100 µM (inactive) | > 100 µM (inactive) | > 100 µM (inactive) |  |
| CC(=O)Nc1ccc(/C=C/C(=O)c2sc(-n3nc(-c4ccccc4)cc3-c3ccccc3)nc2C)cc1 | > 10 µM (inactive) | 74.8 µM (inactive) | > 10 µM (inactive) | > 10 µM (inactive) | > 10 µM (inactive) |  | > 10 µM (inactive) | > 10 µM (inactive) | > 10 µM (inactive) |
| CCOC(=O)C1(Br)C(c2ccccc2)NC(=O)N(C2OC(COC(=O)c3ccccc3)C(OC(=O)c3ccccc3)C2OC(=O)c2ccccc2)C1(C)Br (stereo not drawn) | 36.4 µM (inactive) | 18.3 µM (inactive) | 33.5 µM (inactive) | 37.9 µM (inactive) | 21.6 µM (inactive) |  | > 100 µM (inactive) |  | 15.3 µM (inactive) |
| Cc1cc2c(cc1CO)N1Cc3cc(C)c(CO)cc3N(C2)C1 | > 100 µM (inactive) | > 100 µM (inactive) | > 100 µM (inactive) | > 100 µM (inactive) | > 100 µM (inactive) | > 100 µM (inactive) | > 100 µM (inactive) | > 100 µM (inactive) |  |
| Cc1cccc(C)c1NC(=O)C(=O)CC(=O)CO | > 100 µM (inactive) | > 100 µM (inactive) | > 100 µM (inactive) | > 100 µM (inactive) | > 100 µM (inactive) |  | > 100 µM (inactive) | > 100 µM (inactive) | > 100 µM (inactive) |
| O=C1c2cnccc2Cc2cccc3c2N1c1ccccc1S3 | 29.2 µM (inactive) | 26.4 µM (inactive) | 22.9 µM (inactive) | 17.6 µM (inactive) | 27.5 µM (inactive) | 15.1 µM (inactive) |  |  | 26.1 µM (inactive) |
| O=C(O)CN(CC(=O)O)Cc1cc(C#Cc2ccc(C#Cc3ccccc3)cc2)cc(CN(CC(=O)O)CC(=O)O)n1 | 8.53 µM (inactive) | 13.8 µM (inactive) | 7.66 µM (inactive) | 17 µM (inactive) | 27.2 µM (inactive) | 20.5 µM (inactive) | 33.4 µM (inactive) | 44.3 µM (inactive) |  |
| Nc1ccc(N)c2c1C(=O)c1c(N)ccc(N)c1C2=O | 78.7 µM (inactive) | 30.6 µM (inactive) | 39 µM (inactive) | > 100 µM (inactive) |  | > 54.5 µM (inactive) | 16.3 µM (inactive) | 78.5 µM (inactive) |  |
| COC(=O)C(=O)C1CCCCC(C2=NC3NN=C(N)N3C2=O)C1=O (stereo not drawn) | > 100 µM (inactive) | > 100 µM (inactive) | > 100 µM (inactive) | > 100 µM (inactive) | > 100 µM (inactive) | > 100 µM (inactive) | > 100 µM (inactive) |  | > 100 µM (inactive) |
| C[C@]12CCC[C@H](Cl)C1(O)C[C@H](C(=O)O)CC2 (stereo partly drawn) | > 100 µM (inactive) | > 100 µM (inactive) | > 100 µM (inactive) | > 100 µM (inactive) | > 100 µM (inactive) | > 100 µM (inactive) | > 100 µM (inactive) | > 100 µM (inactive) |  |
| CN(C)C(=S)/N=c1\ssc(=S)n1Cc1cccs1 | 3.82 µM (inactive) | 2.15 µM (inactive) |  | 1.87 µM (inactive) | 4.75 µM (inactive) |  | 8.89 µM (inactive) | 6.68 µM (inactive) |  |
| Cc1c(Cl)ccc2c1NC(=O)C2(O)CC(=O)c1ccc(Cl)cc1 (stereo not drawn) | 42.9 µM (inactive) | 11.7 µM (inactive) | 48.2 µM (inactive) | > 100 µM (inactive) | > 38.9 µM (inactive) |  | > 70.8 µM (inactive) | > 96.6 µM (inactive) | 71.1 µM (inactive) |
| COC(=O)C(Cc1nc2ccccc2nc1O)C(=O)C(=O)Nc1ccc(OC)cc1[N+](=O)[O-] (stereo not drawn) |  |  |  | > 100 µM (inactive) | > 100 µM (inactive) | > 100 µM (inactive) |  | > 100 µM (inactive) |  |
| N#CC12CCC(O)C(CC1)C2=O (stereo not drawn) | 47.3 µM (inactive) | 19.4 µM (inactive) | 96.8 µM (inactive) | > 100 µM (inactive) | > 10 µM (inactive) | > 100 µM (inactive) | > 100 µM (inactive) | > 100 µM (inactive) | > 100 µM (inactive) |
| NC1CC(n2ccc(=O)[nH]c2=O)OC1C(O)CO (stereo not drawn) | > 100 µM (inactive) | > 100 µM (inactive) | > 100 µM (inactive) | > 100 µM (inactive) | > 100 µM (inactive) | > 100 µM (inactive) | > 100 µM (inactive) |  | > 100 µM (inactive) |
| COc1cc2c(cc1OC)C(CC1=C(c3ccccc3)CN3CCc4cc(OC)c(OC)cc4C3C1)NCC2 (stereo not drawn) | 19.1 µM (inactive) | 14.3 µM (inactive) | 15.7 µM (inactive) | 13.4 µM (inactive) | 16.6 µM (inactive) | 11.7 µM (inactive) | 14.6 µM (inactive) | 15.6 µM (inactive) | 14.8 µM (inactive) |
| Cc1ccc(NC(=O)C(=O)C(C#N)c2nc(-c3ccc(-c4ccccc4)cc3)cs2)c(C)c1 (stereo not drawn) | > 100 µM (inactive) | > 100 µM (inactive) | 39.6 µM (inactive) | > 100 µM (inactive) | > 100 µM (inactive) |  | > 100 µM (inactive) | > 100 µM (inactive) |  |
| Fc1ccc(C2SCc3nc4ccccc4n32)cc1 (stereo not drawn) | 39.7 µM (inactive) | 39.5 µM (inactive) |  |  | 34.4 µM (inactive) | 27.8 µM (inactive) | < 0.01 µM (active) | 13.8 µM (inactive) |  |
| COCN(C)c1nc(N(C)C)nc(N(C)C)n1 | > 100 µM (inactive) | > 100 µM (inactive) | > 100 µM (inactive) | > 100 µM (inactive) | 81.5 µM (inactive) |  | 89.3 µM (inactive) | > 100 µM (inactive) |  |
| N#CC1(c2nc3ccccc3o2)C(=O)C(=O)N(c2ccc(Cl)c(Cl)c2)C(=O)C1=O | > 100 µM (inactive) |  | > 100 µM (inactive) | > 100 µM (inactive) | 58.1 µM (inactive) | > 100 µM (inactive) | > 100 µM (inactive) | > 100 µM (inactive) |  |
| O=C(O)/C(Cl)=C(\Cl)C(=O)Nc1ccccc1 | > 100 µM (inactive) |  | > 100 µM (inactive) | > 100 µM (inactive) | > 100 µM (inactive) |  | > 100 µM (inactive) | > 100 µM (inactive) | > 100 µM (inactive) |
| CC(=O)OC1=C2CC[C@@H]3C(CC[C@@]4(C)C3CC[C@@H]4OC(C)=O)[C@@]2(C)CC(C#N)C1=O (stereo partly drawn) | 9.82 µM (inactive) | 17.8 µM (inactive) | 20.9 µM (inactive) | 27.7 µM (inactive) | 30 µM (inactive) | 18.6 µM (inactive) |  | 26.8 µM (inactive) |  |
| Cc1cccc(C)c1N1C(=O)C(=O)C(c2nc3ccccc3s2)/C(=N/c2cccc3c(=O)[nH][nH]c(=O)c23)C1=O (stereo not drawn) | > 100 µM (inactive) |  | > 100 µM (inactive) | > 100 µM (inactive) | > 100 µM (inactive) |  | > 100 µM (inactive) | > 100 µM (inactive) |  |
| CCCCc1c2c(nc3c1CCc1cc4c(nc1-3)-c1nc3c(c(CCCC)c1CC4)CCC/C3=C\c1ccccc1)/C(=C/c1ccccc1)CCC2 | > 100 µM (inactive) | 47.5 µM (inactive) | 35.2 µM (inactive) | > 100 µM (inactive) | 30.8 µM (inactive) | 32.5 µM (inactive) |  | 39.4 µM (inactive) |  |
